From publication PMC10584882 (Communications Biology, 2023)
Several values for one entry are separate records, joined by “and”; a condition that tells them apart may be missing. Identical values can stand only once. Like-named read-outs stand apart in the source and are kept apart here.

Key:
[1] = system: SARS-CoV-2; test: Cytopathic effect inhibition assay in VERO-CCL81 cells; type: cell-based; details: for CPE inhibition (%): VERO CCL81
[2] = system: LC-HK2 cells; test: Fluorescence microscopy, S-protein vesicle size in infected LC-HK2 cells; type: cell-based, human; details: 1.5 µM, versus control
Method: LC-HK2 was cultivated on coverslips (13 mm diameter) to approximately 80% confluence. The cells were pre-treated for 2 h with 1.5 µM of S-Calpeptin diluted in DMEM supplemented with 2.5% FBS. The compounds were removed, and SARS-CoV-2 strain diluted in DMEM supplemented with 2.5% FBS was added to LC-HK2 cells at M.O.I of 0.05, allowing absorption for 1 h. The viral inoculum was removed, and cells were gently washed with PBS without calcium and magnesium. The cells were incubated in the continued presence of 1.5 µM of S-Calpeptin diluted in DMEM supplemented with 2.5% FBS and were examined by fluorescence microscopy at the time points 32, 40, 48, 56, 64 and 72 h post-infection.
For this purpose, the cells were fixed and permeabilized with 3.7% formaldehyde solution (Sigma-Aldrich, F1635) containing 0.2% Triton X-100 in PBS 1×. […] The images were captured using fluorescence range intensity adjusted identically within each experimental series.
Vesicles size quantifications were obtained from 2D maximum projections of Z stacks exported as grayscale TIFs (16-bit depth) using Automated Image Analysis in Zen 2.6 blue software (ZEISS). […]
In the Fluorescence microscopy evaluation, the P-values were generated by unpaired t-test using GraphPad Prism version 8.00 (La Jolla, CA, USA, www.graphpad.com). […]

[3] = system: SARS-CoV-2; test: Cytopathic effect inhibition assay in LC-HK2 cells; type: cell-based; details: for CPE inhibition (%): LC-HK2
[4] = system: SARS-CoV-2-GFP; test: microbe, parasite or virus in culture; type: cell-based; details: Severe acute respiratory syndrome coronavirus 2, Vero C1008, mean with standard error, read-out: VERO E6 EC50
[5] = target: T1, human CatK (Homo sapiens, UniProt P43235); test: Cathepsin inhibition test, CatK; type: biochemical
T1 construct: made in house
T1 sequence (P43235 115-329): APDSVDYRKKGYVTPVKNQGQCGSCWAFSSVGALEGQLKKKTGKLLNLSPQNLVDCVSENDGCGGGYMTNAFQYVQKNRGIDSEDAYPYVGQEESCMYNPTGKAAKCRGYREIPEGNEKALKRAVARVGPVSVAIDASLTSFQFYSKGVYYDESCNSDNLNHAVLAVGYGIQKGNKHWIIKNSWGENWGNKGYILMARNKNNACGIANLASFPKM

[6] = target: T2, SARS-CoV-2 M^pro (Severe acute respiratory syndrome coronavirus 2, UniProt P0DTD1); type: biochemical
T2 construct: Initially reported to target the viral main protease (M^pro); made in house
Method: In the enzyme inhibition assays, the initial velocities were calculated from the initial linear portions of their curves, assuming steady-state kinetics. IC50 and Ki values were calculated using GraphPad Prism software. Z-FR-AMC (CatK and CatV), Z-RR-AMC (CatB and CatL), and QS1 or Acetyl-VKLQ-AMC (M^pro) substrates were used to monitor reactions. These measurements were done in four independent duplicates or triplicates, respectively.

CCCC[C@@H](C=O)NC(=O)[C@H](CC(C)C)NC(=O)OCc1ccccc1 [Calpeptin, reference compound]
inhibition at 0.3125 µM ([1]; Severe acute respiratory syndrome coronavirus 2, VERO CCL81, 0.3125 μM, two experiments, read-out: CPE inhibition (%)): 26.9%
inhibition at 0.625 µM ([1]; Severe acute respiratory syndrome coronavirus 2, VERO CCL81, 0.625 μM, two experiments, read-out: CPE inhibition (%)): 31.8%
inhibition at 1.25 µM ([1]; Severe acute respiratory syndrome coronavirus 2, VERO CCL81, 1.25 μM, two experiments, read-out: CPE inhibition (%)): 41.2%
inhibition at 2.5 µM ([1]; Severe acute respiratory syndrome coronavirus 2, VERO CCL81, 2.5 μM, two experiments, read-out: CPE inhibition (%)): 49.3%
inhibition at 5 µM ([1]; Severe acute respiratory syndrome coronavirus 2, VERO CCL81, 5 μM, two experiments, read-out: CPE inhibition (%)): 61.9%
inhibition at 10 µM ([1]; Severe acute respiratory syndrome coronavirus 2, VERO CCL81, 10 μM, two experiments, read-out: CPE inhibition (%)): 64.6%
EC50 ([1]; Severe acute respiratory syndrome coronavirus 2, VERO-CCL81, CellTiter-Glo, 48 h post-infection, read-out: CPE inhibition EC50): 400 nM
CPE inhibition (%) ([1]; 0.1563 μM, two experiments): 12.75% and 5.21%
CPE inhibition (%) ([1]; 0.3125 μM, two experiments): 21.14%
CPE inhibition (%) ([1]; 0.625 μM, two experiments): 29.81%
CPE inhibition (%) ([1]; 1.25 μM, two experiments): 49.13%
CPE inhibition (%) ([1]; 2.5 μM, two experiments): 33.89%
CPE inhibition (%) ([1]; 5 μM, two experiments): 61.52%
CPE inhibition (%) ([1]; 10 μM, two experiments): 53.9%
impact on vesicle morphology / S-protein vesicle size [2]: no substantial impact on vesicle morphology
CPE inhibition (%) ([3]; 0.0000000001 μM, 1e-10 µM): 6.04%
CPE inhibition (%) ([3]; 0.00000001 μM, 10 fM): 8.96%
CPE inhibition (%) ([3]; 0.0000001 μM, 100 fM): 9.11%
CPE inhibition (%) ([3]; 0.001 μM): 0.77%
CPE inhibition (%) ([3]; 0.01 μM): 24.54%
CPE inhibition (%) ([3]; 0.1 μM): 36.51%
CPE inhibition (%) ([3]; 1 μM): 50.4%
CPE inhibition (%) ([3]; 10 μM): 59.73%
inhibition at 1e-12 µM ([3]; Severe acute respiratory syndrome coronavirus 2, LC-HK2, 0.000000000001 μM (first of two lines so printed, r18), read-out: CPE inhibition (%)): 0%
inhibition at 1e-12 µM ([3]; Severe acute respiratory syndrome coronavirus 2, LC-HK2, 0.000000000001 μM (second line, r19), read-out: CPE inhibition (%)): 0%
inhibition at 1e-11 µM ([3]; Severe acute respiratory syndrome coronavirus 2, LC-HK2, 0.00000000001 μM, read-out: CPE inhibition (%)): 0%
inhibition at 1 fM ([3]; Severe acute respiratory syndrome coronavirus 2, LC-HK2, 0.000000001 μM, read-out: CPE inhibition (%)): 0%
inhibition at 10 pM ([3]; Severe acute respiratory syndrome coronavirus 2, LC-HK2, 0.00001 μM, read-out: CPE inhibition (%)): 0%
inhibition at 0.0001 µM ([3]; Severe acute respiratory syndrome coronavirus 2, LC-HK2, 0.0001 μM, read-out: CPE inhibition (%)): 0%
inhibition at 0.01 µM ([3]; Severe acute respiratory syndrome coronavirus 2, LC-HK2, 0.01 μM, read-out: CPE inhibition (%)): 19%
inhibition at 0.1 µM ([3]; Severe acute respiratory syndrome coronavirus 2, LC-HK2, 0.1 μM, read-out: CPE inhibition (%)): 24.4%
inhibition at 1 µM ([3]; Severe acute respiratory syndrome coronavirus 2, LC-HK2, 1 μM, read-out: CPE inhibition (%)): 60.8%
inhibition at 10 µM ([3]; Severe acute respiratory syndrome coronavirus 2, LC-HK2, 10 μM, read-out: CPE inhibition (%)): 52.8%
EC50 ([3]; Severe acute respiratory syndrome coronavirus 2, LC-HK2, CellTiter-Glo, 72 h post-infection, read-out: CPE inhibition EC50): 60 nM
EC50 [4]: 183 ± 65 nM
Residual activity (Vi/V0) ([5]; Fig. S3 panel a, inhibitor 0.010 nM, single replicates, 10 pM): 0.8228 and 0.7849 and 0.8924
remaining activity at 10 pM ([5]; Fig. S3 panel a, inhibitor 0.010 nM, single replicates, read-out: Residual activity (Vi/V0)): 79.2%
Residual activity (Vi/V0) ([5]; Fig. S3 panel a, inhibitor 0.018 nM, single replicates, 18 pM): 0.692 and 0.7935 and 0.8793 and 0.9792
Residual activity (Vi/V0) ([5]; Fig. S3 panel a, inhibitor 0.032 nM, single replicates, 32 pM): 0.6266 and 0.7672 and 0.8012 and 0.8701
Residual activity (Vi/V0) ([5]; Fig. S3 panel a, inhibitor 0.058 nM, single replicates, 58 pM): 0.6214 and 0.5994 and 0.7911 and 0.9302
Residual activity (Vi/V0) ([5]; Fig. S3 panel a, inhibitor 0.105 nM, single replicates, 0.000105 µM): 0.4801 and 0.5677 and 0.7764
Residual activity (Vi/V0) ([5]; Fig. S3 panel a, inhibitor 0.189 nM, single replicates, 0.000189 µM): 0.4602 and 0.558 and 0.5219 and 0.7569
Residual activity (Vi/V0) ([5]; Fig. S3 panel a, inhibitor 0.340 nM, single replicates, 0.00034 µM): 0.3878 and 0.4931 and 0.523
remaining activity at 0.00034 µM ([5]; Fig. S3 panel a, inhibitor 0.340 nM, single replicates, read-out: Residual activity (Vi/V0)): 34.5%
Residual activity (Vi/V0) ([5]; Fig. S3 panel a, inhibitor 0.612 nM, single replicates, 0.000612 µM): 0.4226 and 0.3636 and 0.4242
remaining activity at 0.000612 µM ([5]; Fig. S3 panel a, inhibitor 0.612 nM, single replicates, read-out: Residual activity (Vi/V0)): 40.6%
Residual activity (Vi/V0) ([5]; Fig. S3 panel a, inhibitor 1.103 nM, single replicates, 0.001103 µM): 0.2715 and 0.287 and 0.3208
remaining activity at 0.001103 µM ([5]; Fig. S3 panel a, inhibitor 1.103 nM, single replicates, read-out: Residual activity (Vi/V0)): 28.1%
Residual activity (Vi/V0) ([5]; Fig. S3 panel a, inhibitor 1.985 nM, single replicates, 0.001985 µM): 0.3296 and 0.262 and 0.2126
remaining activity at 0.001985 µM ([5]; Fig. S3 panel a, inhibitor 1.985 nM, single replicates, read-out: Residual activity (Vi/V0)): 22.7%
Residual activity (Vi/V0) ([5]; Fig. S3 panel a, inhibitor 3.572 nM, single replicates, 0.003572 µM): 0.1196 and 0.134 and 0.13
remaining activity at 0.003572 µM ([5]; Fig. S3 panel a, inhibitor 3.572 nM, single replicates, read-out: Residual activity (Vi/V0)): 12.2%
Residual activity (Vi/V0) ([5]; Fig. S3 panel a, inhibitor 6.430 nM, single replicates, 0.00643 µM): 0.07914 and 0.03985 and 0.09073 and 0.08937
Residual activity (Vi/V0) ([5]; Fig. S3 panel a, inhibitor 11.547 nM, single replicates, 0.011547 µM): 0.02749 and 0.03914 and 0.04269
remaining activity at 0.011547 µM ([5]; Fig. S3 panel a, inhibitor 11.547 nM, single replicates, read-out: Residual activity (Vi/V0)): 3.75%
Residual activity (Vi/V0) ([5]; Fig. S3 panel a, inhibitor 20.833 nM, single replicates, 0.020833 µM): 0.006913 and 0.01907 and 0.01563
Residual activity (Vi/V0) ([5]; Fig. S3 panel a, inhibitor 37.500 nM, single replicates, 0.0375 µM): -0.03871 and -0.04863 and 0.01233 and 0.01242
Ki ([5]; mean with standard deviation and 95% confidence interval, pH 5.5, 37 °C): 0.061 nM
range of M^pro inhibition (in words) [6]: micromolar range
